From US6809110B2 (Hoffmann-La Roche Inc., priority 2002, dated 2004)
Each block holds one molecule with its values, some of them ahead of it.

melting point: 146 to 148 °C
Compound: CCOC(Cc1ccc(OCCc2nc(-c3ccccc3)sc2C)c2ccsc12)C(=O)O (racemic) [Example 1, [rac]-2-Ethoxy-3-{4-[2-(5-methyl-2-phenyl-thiazol-4-yl)-ethoxy]-benzo[b]thiophen-7-yl}-propionic acid]

melting point: 120 to 122 °C
Compound: CCOC(Cc1ccc(OCCc2nc(-c3ccc(C(C)C)cc3)sc2C)c2ccsc12)C(=O)O (racemic) [Example 75, [rac]-2-Ethoxy-3-(4-{2-[2-(4-isopropyl-phenyl)-5-methyl-thiazol-4-yl]-ethoxy}-benzo[b]thiophen-7-yl)-propionic acid]

melting point: 123 to 124 °C
Compound: CCCOC(Cc1ccc(OCCc2nc(-c3ccc(C)cc3)sc2C)c2ccccc12)C(=O)O (racemic) [Example 82, [rac]-3-{4-[2-(5-Methyl-2-p-tolyl-thiazol-4-yl)-ethoxy]-naphthalen-1-yl}-2-propoxy-propionic acid]

melting point: 156 to 157 °C
Compound: COc1cc(OC)cc(-c2nc(CCOc3ccc(CC(OC)C(=O)O)c4sccc34)c(C)s2)c1 (racemic) [Example 84, [rac]-3-(4-{2-[2-(3,5-Dimethoxy-phenyl)-5-methyl-thiazol-4-yl]-ethoxy}-benzo[b]thiophen-7-yl)-2-methoxy-propionic acid]

melting point: 76 °C
Compound: CCCOC(Cc1ccc(OCCc2nc(-c3ccc(C(C)(C)C)cc3)sc2C)c2ccsc12)C(=O)O (racemic) [Example 87, [rac]-3-(4-{2-[2-(4-tert-Butyl-phenyl)-5-methyl-thiazol-4-yl]-ethoxy}-benzo[b]thiophen-7-yl)-2-propoxy-propionic acid]

melting point: 133 to 135 °C
Compound: CCOC(Cc1ccc(OCCc2nc(-c3cc(OC)cc(OC)c3)sc2C)c2ccccc12)C(=O)O (racemic) [Example 88, [rac]-3-(4-{2-[2-(3,5-Dimethoxy-phenyl)-5-methyl-thiazol-4-yl]-ethoxy}-naphthalen-1-yl)-2-ethoxy-propionic acid]

melting point: 190 to 192 °C
Compound: COC(Cc1ccc(OCc2sc(-c3ccc(C(F)(F)F)cc3)nc2C)c2ccccc12)C(=O)O (racemic) [Example 136, [rac]-2-Methoxy-3-{4-[4-methyl-2-(4-trifluoromethyl-phenyl)-thiazol-5-ylmethoxy]-naphthalen-1-yl}-propionic acid]

melting point: 186 to 188 °C
Compound: CCOC(Cc1ccc(OCc2sc(-c3ccc(C(F)(F)F)cc3)nc2C)c2ccccc12)C(=O)O (racemic) [Example 137, [rac]-2-Ethoxy-3-{4-[4-methyl-2-(4-trifluoromethyl-phenyl)-thiazol-5-ylmethoxy]-naphthalen-1-yl}-propionic acid]

melting point: 140 to 142 °C (dec.)
Compound: COC(Cc1ccc(OCc2sc(-c3ccc(C(F)(F)F)cc3)nc2C)c2ccsc12)C(=O)O (racemic) [Example 138, [rac]-2-Methoxy-3-{4-[4-methyl-2-(4-trifluoromethyl-phenyl)-thiazol-5-ylmethoxy]-benzo[b]thiophen-7-yl}-propionic acid]

Further lines, the molecule ahead of its results:

Compound: CCOC(Cc1ccc(OCCc2nc(-c3ccccc3)sc2C)c2ccccc12)C(=O)O (racemic) [Example 51, [rac]-2-Ethoxy-3-{4-[2-(5-methyl-2-phenyl-thiazol-4-yl)-ethoxy]-naphthalen-1-yl}-propionic acid]
melting point: 140 to 143 °C

Compound: CCOC(Cc1ccc(OCCc2nc(-c3ccc(C)cc3)sc2C)c2ccsc12)C(=O)O (racemic) [Example 72, [rac]-2-Ethoxy-3-{4-[2-(5-methyl-2-p-tolyl-thiazol-4-yl)-ethoxy]-benzo[b]thiophen-7-yl}-propionic acid]
melting point: 126 to 127 °C

Compound: CCOC(Cc1ccc(OCCc2nc(-c3ccc(C(C)(C)C)cc3)sc2C)c2ccccc12)C(=O)O (racemic) [Example 73, [rac]-3-(4-{2-[2-(4-tert-Butyl-phenyl)-5-methyl-thiazol-4-yl]-ethoxy}-naphthalen-1-yl)-2-ethoxy-propionic acid]
melting point: 90 to 93 °C

Compound: CCOC(Cc1ccc(OCCc2nc(-c3ccc(C(C)(C)C)cc3)sc2C)c2ccsc12)C(=O)O (racemic) [Example 74, [rac]-3-(4-{2-[2-(4-tert-Butyl-phenyl)-5-methyl-thiazol-4-yl]-ethoxy}-benzo[b]thiophen-7-yl)-2-ethoxy-propionic acid]
melting point: 152 to 154 °C

Compound: CCOC(Cc1ccc(OCCc2nc(-c3ccc(C(C)C)cc3)sc2C)c2ccccc12)C(=O)O (racemic) [Example 77, [rac]-2-Ethoxy-3-(4-{2-[2-(4-isopropyl-phenyl)-5-methyl-thiazol-4-yl]-ethoxy}-naphthalen-1-yl)-propionic acid]
melting point: 111 to 113 °C

Compound: CCOC(Cc1ccc(OCCc2nc(-c3ccc(C)cc3)sc2C)c2ccccc12)C(=O)O (racemic) [Example 78, [rac]-2-Ethoxy-3-{4-[2-(5-methyl-2-p-tolyl-thiazol-4-yl)-ethoxy]-naphthalen-1-yl}-propionic acid]
melting point: 140 to 141 °C

Compound: Cc1sc(-c2ccccc2)nc1CCOc1ccc(CC(OC(C)C)C(=O)O)c2sccc12 (racemic) [Example 79, [rac]-2-Isopropoxy-3-{4-[2-(5-methyl-2-phenyl-thiazol-4-yl)-ethoxy]-benzo[b]thiophen-7-yl}-propionic acid]
melting point: 73 °C

Compound: CCCOC(Cc1ccc(OCCc2nc(-c3ccccc3)sc2C)c2ccccc12)C(=O)O (racemic) [Example 80, [rac]-3-{4-[2-(5-Methyl-2-phenyl-thiazol-4-yl)-ethoxy]-naphthalen-1-yl}-2-propoxy-propionic acid]
melting point: 95 to 99 °C

Compound: COC(Cc1ccc(OCCc2nc(-c3ccc(C)cc3)sc2C)c2ccccc12)C(=O)O (racemic) [Example 81, [rac]-2-Methoxy-3-{4-[2-(5-methyl-2-p-tolyl-thiazol-4-yl)-ethoxy]-naphthalen-1-yl}-propionic acid]
melting point: 155 to 156 °C

Compound: CCOC(Cc1ccc(OCCc2nc(-c3cc(OC)cc(OC)c3)sc2C)c2ccsc12)C(=O)O (racemic) [Example 83, [rac]-3-(4-{2-[2-(3,5-Dimethoxy-phenyl)-5-methyl-thiazol-4-yl]-ethoxy}-benzo[b]thiophen-7-yl)-2-ethoxy-propionic acid]
melting point: 148 to 150 °C

Compound: COc1cc(OC)cc(-c2nc(CCOc3ccc(CC(OC(C)C)C(=O)O)c4sccc34)c(C)s2)c1 (racemic) [Example 85, [rac]-3-(4-{2-[2-(3,5-Dimethoxy-phenyl)-5-methyl-thiazol-4-yl]-ethoxy}-benzo[b]thiophen-7-yl)-2-isopropoxy-propionic acid]
melting point: 150 to 152 °C

Compound: Cc1sc(-c2ccc(C(C)(C)C)cc2)nc1CCOc1ccc(CC(OC(C)C)C(=O)O)c2ccccc12 (racemic) [Example 86, [rac]-3-(4-{2-[2-(4-tert-Butyl-phenyl)-5-methyl-thiazol-4-yl]-ethoxy}-naphthalen-1-yl)-2-isopropoxy-propionic acid]
melting point: 75 to 85 °C

Compound: CCOC(Cc1ccc(OCc2sc(-c3ccc(C(F)(F)F)cc3)nc2C)c2ccsc12)C(=O)O (racemic) [Example 139, [rac]-2-Ethoxy-3-{4-[4-methyl-2-(4-trifluoromethyl-phenyl)-thiazol-5-ylmethoxy]-benzo[b]thiophen-7-yl}-propionic acid]
melting point: 178 to 179 °C
